The target in assay [1] is T1, RON (Homo sapiens, UniProt Q04912). Nature of the assay: RON inhibition (percent activity vs log concentration).
From the text: (§1) The plot indicates percent activity of RON or cMet as a function of the log concentration of the compound (in moles, M). From the plot, the IC50 values may be obtained.
In assay [2] the test system is cancer cell lines. Nature of the assay: Cellular IC50 (GI50) of RON inhibitors with or without Dasatinib in cancer cell lines. Type of assay: cell-based. The following applies: all tested cell lines; co-administered with Dasatinib. From the text: FIGS. 12A-12C show additional example data of a small molecule approach to inhibit SRC and RON in cancer cells. As described herein, one approach to validate the CombiGEM results (dual SRC and RON knockout using Cas and DNA constructs) can include using small molecule inhibitors to reduce function of SRC or RON. […] FIG. 12B and FIG. 12C show plots of GI50 as a function of treatment with RON inhibitors Foretinib or a Met/Ron inhibitor, respectively, co-administered with Dasatinib.

Assay [3] has as its target cMet (Homo sapiens, UniProt P08581). Nature of the assay: cMet inhibition (percent activity vs log concentration).
From the text: as §1
Assay [4] concerns MDA-MB-231 tumor xenografts. The experiment in a line: MDA-MB-231 tumor xenograft, tumor volume.
Assay [5] has as its target T1, RON. Nature of the assay: RON dissociation constant (Kd). Type of assay: binding. An excerpt:
The four compounds “ENG-009”, “ENG-015”, “ENG-018”, and“ENG-035” are shown, along with their Ron and cMet inhibitory activities.

Assay [6] relates to MDA-MB-231 cells. The experiment in a line: MDA-MB-231 cell viability as a function of SU-6656 concentration, with or without Dasatinib co-treatment. Type of assay: cell-based. The following applies: Homo sapiens, MDA-MB-231, MDA-MB-231, read-out: concentration of SU-6656 at 50% viability. The method, then:
An additional approach to validate the CombiGEM results (dual SRC and YES knockout using Cas and DNA constructs) can include using small molecule inhibitors to reduce the function of SRC or YES. […] One group of cells is treated with only the YES inhibitor and the vehicle control (DMSO only). Two groups of cells are co-treated with Dasatinib, a SRC inhibitor, at a concentration of 500 nM or 1 μM. The control group (DMSO only, no Dasatinib) has a 50% viability at a concentration of 68.6 μM of SU-6656, compared to 20.4 μM for the cells co-treated with 500 nM Dasatinib and 12.7 μM for the cells co-treated with 1 μM Dasatinib.

For assay [7], the system named is 506 cell lines. The experiment in a line: Sensitivity of 506 cell lines to Dasatinib. Type of assay: cell-based. The following applies: FIG. 10. An excerpt:
The bar plot indicates the effect of various SRC inhibitors, YES inhibitors, or dual SRC/YES inhibitors on the sensitivity of the cells to inhibition; along with an inhibitor for an unrelated/control kinase WEE1. Each bar represents a different type of inhibitor, which may inhibit SRC, YES, SRC and YES, or WEE1. Bars 1-2 from the left of the plot indicate cells are most sensitive to inhibition when SRC and YES are both inhibited. Bars 3-6 from the left of the plot indicate sensitivity to inhibition for cells treated with SRC inhibitors. Bar 7 from the left of the plot indicates sensitivity to inhibition for cells treated with WEE1 inhibitor. […] from the left of the plot also indicate sensitivity to inhibition for cells treated with SRC inhibitors. Bar 9 from the left of the plot indicates sensitivity to inhibition for cells treated with YES1 inhibitor. Bar 10 from the left of the plot indicates sensitivity to inhibition for cells treated with WEE1 inhibitor. Increased sensitivity to inhibition is observed in SRC and YES dual inhibition, compared to SRC-only inhibition or YES-only inhibition. In FIG. 10, 506 cell lines are compared for sensitivity to Dasatinib (SRC and YES inhibitor). 119 of the 506 cell lines are more sensitive to Dasatinib than MDA-MB-231 cells. […] Cell lines that are sensitive to Dasatinib are more sensitive to other dual inhibitors of YES and SRC.

pIC50, pKd: −log10 of the molar value. Where two headings read alike, the source gives them in different places.

T1 sequence (Q04912 25-1400): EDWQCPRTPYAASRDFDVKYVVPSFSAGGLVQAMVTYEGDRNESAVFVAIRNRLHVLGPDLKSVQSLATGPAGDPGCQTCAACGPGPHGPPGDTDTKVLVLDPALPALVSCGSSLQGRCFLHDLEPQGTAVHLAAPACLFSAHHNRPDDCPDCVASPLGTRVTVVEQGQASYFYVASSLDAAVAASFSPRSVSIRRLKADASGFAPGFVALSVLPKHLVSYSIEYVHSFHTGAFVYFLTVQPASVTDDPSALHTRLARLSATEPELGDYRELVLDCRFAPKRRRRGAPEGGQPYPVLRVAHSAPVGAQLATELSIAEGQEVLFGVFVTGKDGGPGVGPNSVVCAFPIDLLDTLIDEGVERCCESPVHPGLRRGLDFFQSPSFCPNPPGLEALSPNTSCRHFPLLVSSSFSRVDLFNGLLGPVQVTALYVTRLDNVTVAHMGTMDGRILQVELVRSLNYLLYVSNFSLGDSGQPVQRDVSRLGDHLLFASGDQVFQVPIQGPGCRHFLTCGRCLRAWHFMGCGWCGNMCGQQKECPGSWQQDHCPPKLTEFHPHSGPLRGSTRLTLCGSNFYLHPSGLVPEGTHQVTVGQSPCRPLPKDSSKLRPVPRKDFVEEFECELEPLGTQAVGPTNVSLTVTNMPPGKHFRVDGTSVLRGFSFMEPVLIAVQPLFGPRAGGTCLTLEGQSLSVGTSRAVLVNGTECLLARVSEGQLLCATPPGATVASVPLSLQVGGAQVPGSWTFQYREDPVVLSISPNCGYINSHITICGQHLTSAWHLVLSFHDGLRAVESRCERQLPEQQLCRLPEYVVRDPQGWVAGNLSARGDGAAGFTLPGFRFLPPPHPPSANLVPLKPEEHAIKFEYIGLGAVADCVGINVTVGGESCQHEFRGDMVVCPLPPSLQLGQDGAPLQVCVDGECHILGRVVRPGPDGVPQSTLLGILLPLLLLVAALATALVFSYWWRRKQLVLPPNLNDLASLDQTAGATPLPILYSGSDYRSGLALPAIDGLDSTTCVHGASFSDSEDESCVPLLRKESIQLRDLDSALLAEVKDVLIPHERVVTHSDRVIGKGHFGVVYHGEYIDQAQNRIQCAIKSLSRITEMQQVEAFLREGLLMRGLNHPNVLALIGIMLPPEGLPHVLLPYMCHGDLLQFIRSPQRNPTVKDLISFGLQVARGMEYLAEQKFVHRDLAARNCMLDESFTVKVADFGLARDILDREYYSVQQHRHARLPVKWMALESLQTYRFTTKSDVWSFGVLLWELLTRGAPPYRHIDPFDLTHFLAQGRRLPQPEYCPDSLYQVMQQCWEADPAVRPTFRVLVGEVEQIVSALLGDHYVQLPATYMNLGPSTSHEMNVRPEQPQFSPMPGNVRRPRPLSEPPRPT
Sequence of cMet (P08581 25-1390): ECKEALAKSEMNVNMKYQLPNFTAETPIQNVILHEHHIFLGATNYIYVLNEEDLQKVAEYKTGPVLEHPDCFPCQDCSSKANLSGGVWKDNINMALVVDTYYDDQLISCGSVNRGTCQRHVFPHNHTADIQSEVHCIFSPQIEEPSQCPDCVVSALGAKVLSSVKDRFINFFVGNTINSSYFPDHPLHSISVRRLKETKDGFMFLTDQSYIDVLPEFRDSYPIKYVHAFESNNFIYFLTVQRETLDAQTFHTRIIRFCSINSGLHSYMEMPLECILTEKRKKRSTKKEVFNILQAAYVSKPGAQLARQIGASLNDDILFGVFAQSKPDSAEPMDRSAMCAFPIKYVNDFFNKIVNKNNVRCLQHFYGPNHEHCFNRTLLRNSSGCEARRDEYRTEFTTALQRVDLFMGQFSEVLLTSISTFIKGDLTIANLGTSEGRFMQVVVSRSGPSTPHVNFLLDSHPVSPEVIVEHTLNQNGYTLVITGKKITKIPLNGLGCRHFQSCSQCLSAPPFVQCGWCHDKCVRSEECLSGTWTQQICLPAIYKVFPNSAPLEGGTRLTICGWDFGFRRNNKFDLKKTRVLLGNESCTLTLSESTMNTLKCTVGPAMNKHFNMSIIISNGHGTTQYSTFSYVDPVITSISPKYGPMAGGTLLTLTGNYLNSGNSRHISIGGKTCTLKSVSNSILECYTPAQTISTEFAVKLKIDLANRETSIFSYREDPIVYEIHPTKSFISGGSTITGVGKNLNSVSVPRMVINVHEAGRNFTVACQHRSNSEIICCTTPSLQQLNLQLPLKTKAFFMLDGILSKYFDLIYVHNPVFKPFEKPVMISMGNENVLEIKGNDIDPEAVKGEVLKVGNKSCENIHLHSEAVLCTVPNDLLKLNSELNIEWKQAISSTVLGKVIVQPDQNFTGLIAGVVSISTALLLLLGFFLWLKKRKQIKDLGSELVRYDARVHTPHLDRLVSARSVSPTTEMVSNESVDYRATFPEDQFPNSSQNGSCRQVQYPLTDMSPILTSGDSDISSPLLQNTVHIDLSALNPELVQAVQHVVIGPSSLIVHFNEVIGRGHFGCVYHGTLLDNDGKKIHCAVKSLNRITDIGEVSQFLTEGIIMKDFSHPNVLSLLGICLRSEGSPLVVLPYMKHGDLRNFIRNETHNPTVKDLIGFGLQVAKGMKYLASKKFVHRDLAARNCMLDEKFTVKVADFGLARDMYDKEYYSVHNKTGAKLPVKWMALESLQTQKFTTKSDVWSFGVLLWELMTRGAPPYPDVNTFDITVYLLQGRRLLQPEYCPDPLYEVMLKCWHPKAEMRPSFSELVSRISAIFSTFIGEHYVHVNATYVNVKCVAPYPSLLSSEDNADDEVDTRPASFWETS

As for `CCOc1ccn(-c2ccc(F)cc2)c(=O)c1C(=O)Nc1ccc(Oc2ccnc(N)c2Cl)c(F)c1` [BMS777607, N-[4-[(2-amino-3-chloro-4-pyridinyl)oxy]-3-fluorophenyl]-4-ethoxy-1-(4-fluorophenyl)-2-oxo-3-pyridinecarboxamide], the values for the pIC50 in assay [1] and in assay [3] were 8.07 and 8.14, respectively. Also, in assay [1] (ratio), the “selectivity for RON over cMet (cMet IC50/RON IC50)” value (“selectivity … (cMet IC50/RON IC50)” for short) is 0.9. Moreover, in assay [2], the “potency (GI50) of RON inhibitor in the presence of Dasatinib vs its absence (DMSO)” value is reported as “potency (lower GI50) is greater for the RON inhibitor in the presence of Dasatinib than in its absence”. The “tumor growth compared to vehicle control” value in assay [4] (RON inhibitor only, BMS777607 20 mpk) was “slightly lower compared to the vehicle control”.
For orientation: pKd means −log10 of the Kd, conventionally taken in molar units. Turning to `Cn1cnc(-c2nc3nccc(Oc4ccc(NC(=O)c5cnn(-c6ccccc6)c5C(F)(F)F)cc4F)c3s2)c1` [ENG-035, N-(3-fluoro-4-((2-(1-methyl-1H-imidazol-4-yl)thiazolo[4,5-b]pyridin-7-yl)oxy)phenyl)-1-phenyl-5-(trifluoromethyl)-1H-pyrazole-4-carboxamide], the pKd in assay [5] is 7.37. Also, the “selectivity … (cMet IC50/RON IC50)” value in assay [1] is reported as approximately 2.3 fold.
As for `CC1=C(C#N)C(c2ccc3[nH]nc(OCCOC(C)C)c3c2)C(C#N)=C(C)N1` [tool compound 2, 4-(3-(2-isopropoxyethoxy)-1H-indazol-5-yl)-2,6-dimethyl-1,4-dihydropyridine-3,5-dicarbonitrile], the pIC50 in assay [1] is 5.07.
Take `CCN1CCN(CCCOc2cc3nccc(Oc4c(F)cc(NC(=O)NN5C(=O)CSC5c5c(F)cccc5F)cc4F)c3cc2OC)CC1` (stereo not shown) [ENG-013, 1-(2-(2,6-difluorophenyl)-4-oxothiazolidin-3-yl)-3-(4-((7-(3-(4-ethylpiperazin-1-yl)propoxy)-6-methoxyquinolin-4-yl)oxy)-3,5-difluorophenyl)urea]: in assay [1], the pIC50 was 8.80 and the “selectivity … (cMet IC50/RON IC50)” value is recorded as “approximately 10 fold”.
With `CN(C)S(=O)(=O)c1ccc2c(c1)/C(=C/c1cc3c([nH]1)CCCC3)C(=O)N2` [SU-6656, (3Z)-N,N-Dimethyl-2-oxo-3-(4,5,6,7-tetrahydro-1H-indol-2-ylmethylidene)-2,3-dihydro-1H-indole-5-sulfonamide], the pIC50 was 4.16 in assay [6] (DMSO only, no Dasatinib); 4.69 in assay [6] (co-treated with 500 nM Dasatinib); 4.90 in assay [6] (co-treated with 1 μM Dasatinib).
Take `Cc1nc(Nc2ncc(C(=O)Nc3c(C)cccc3Cl)s2)cc(N2CCN(CCO)CC2)n1.O` [Dasatinib, N-(2-chloro-6-methylphenyl)-2-[[6-[4-(2-hydroxyethyl)-1-piperazinyl]-2-methyl-4-pyrimidinyl]amino]-5-thiazole carboxamide monohydrate]: the “number of the 506 cell lines more sensitive to Dasatinib than MDA-MB-231 cells” value in assay [7] is listed as 119. Further, in assay [4] (SRC inhibitor only, Dasatinib 10 mpk), the “tumor growth compared to vehicle control” value is reported as “slightly lower compared to the vehicle control”.
`Cn1cnc(-c2cc3nccc(Oc4ccc(NC(=O)c5cnn(-c6ccccc6)c5C(F)(F)F)cc4F)c3cn2)c1` [ENG-015, N-(3-fluoro-4-((7-(1-methyl-1H-imidazol-4-yl)-1,6-naphthyridin-4-yl)oxy)phenyl)-1-phenyl-5-(trifluoromethyl)-1H-pyrazole-4-carboxamide]: the pIC50 in assay [1] is 8.55; in assay [3], 6.88. Besides, the results for the “selectivity … (cMet IC50/RON IC50)” value in assay [1] and in assay [1] (ratio) were “approximately 50 fold” and more than 47, respectively. Also, the “IC30 for RON” value in assay [1] (printed as IC30) is recorded as 2.8 nM.
In turn, `Cn1cnc(-c2nc3c(Oc4ccc(NC(=O)c5cnn(-c6ccccc6)c5C(F)(F)F)cc4F)ncnc3s2)c1` [ENG-009, N-(3-fluoro-4-((2-(1-methyl-1H-imidazol-4-yl)thiazolo[5,4-d]pyrimidin-7-yl)oxy)phenyl)-1-phenyl-5-(trifluoromethyl)-1H-pyrazole-4-carboxamide] had a pIC50 in assay [1] of 6.54 to 6.65. In addition, in assay [3], the “cMet inhibition (in words)” value was “inactive”.
`Cn1cnc(-c2ccc3c(Oc4ccc(NC(=O)c5cnn(-c6ccccc6)c5C(F)(F)F)cc4F)n[nH]c3c2)c1` [ENG-018, N-(3-fluoro-4-((6-(1-methyl-1H-imidazol-4-yl)-1H-indazol-3-yl)oxy)phenyl)-1-phenyl-5-(trifluoromethyl)-1H-pyrazole-4-carboxamide]: in assay [1], the “RON inhibition (in words)” value is “relatively inactive”. In addition, the “cMet inhibition (in words)” value in assay [3] was “relatively inactive”.
As to `COc1cc2c(Oc3ccc(NC(=O)C4(C(=O)Nc5ccc(F)cc5)CC4)cc3F)ccnc2cc1OCCCN1CCOCC1` [Foretinib, N1′-[3-fluoro-4-[[6-methoxy-7-(3-morpholinopropoxy)-4-quinolyl]oxy]phenyl]-N1-(4-fluorophenyl)cyclopropane-1,1-dicarboxamide], the “potency (GI50) of RON inhibitor in the presence of Dasatinib vs its absence (DMSO)” value in assay [2] was “potency (lower GI50) is greater for the RON inhibitor in the presence of Dasatinib than in its absence”.

(Values after patent US20220356494A1, “METHODS AND COMPOSITIONS FOR TREATING CANCER” (Engine Biosciences Pte. Ltd., priority 2019, published 2022).)
